Patent US8324234B2, “Method for inhibiting melanin production and whitening skin with pyrimidylpyrazole compounds or pharmaceutically acceptable salts thereof” (Shiseido Company Ltd., priority 2008, dated 2012)

Test system: Mouse B16 melanoma cells
Experiment: Melanin production inhibition test (quantification of melanin)
Format: cell-based
Conditions: for Inhibitory effect on melanin production: class of minimum non-cytotoxic concentration giving melanin amount 80% or less of solvent group, B16 cells, three days after addition; for Minimum concentration (%): minimum concentration at which an inhibitory effect on melanin production was significantly exhibited in melanoma B16 cells
Description: A test for melanin production inhibition by the compounds of the formula (1) was conducted. The test method is as follows.
Melanin Production Inhibition Test
(1) Inoculation of Cells and Addition of Test Substances
Mouse B16 melanoma cells were inoculated in a six well plate at 100,000 cells/well. The next day, test substance solutions (solvent: DMSO) were added.
(3) Quantification of Melanin
The cells after the cell proliferation test were washed with PBS three times, and then lysed by addition of 200 μL of 1M NaOH to measure an absorbance at 475 nm. Using the value thus measured as a relative value of the melanin amount, a ratio of the melanin amount (%) of the test substance-added group to the test substance-absent group (group in which only the solvent was added) was calculated. The lower the ratio of the melanin amount, the higher the melanin production-inhibitory effect. […] The inhibitory effect on melanin production was evaluated according to the following criteria.
⊚: the minimum concentration for inhibition of melanin production was 1 ppm or less.
◯: the minimum concentration for inhibition of melanin production was more than 1 ppm and 10 ppm or less.

SMILES | Inhibitory effect on melanin production | Minimum concentration (%)
Cc1cc(C)nc(-n2nc(C)cc2C)n1 [Compound 1, 2-(3,5-dimethylpyrazol-1-yl)-4,6-dimethylpyrimidine] | ⊚ (the minimum concentration for inhibition of melanin production was 1 ppm or less) | 1 × 10^−6%
Cc1cc(C)nc(-n2nc(C)cc2C)n1.Cl [Compound 2, 2-(3,5-dimethylpyrazol-1-yl)-4,6-dimethylpyrimidine hydrochloride] | ⊚ (the minimum concentration for inhibition of melanin production was 1 ppm or less) | 
CCc1cc(CC)n(-c2nc(C)cc(C)n2)n1 [Compound 3] | ⊚ (the minimum concentration for inhibition of melanin production was 1 ppm or less) | 3 × 10^−6%
Cc1cc(C)nc(-n2nc(C)c(C)c2C)n1 [Compound 4] | ⊚ (the minimum concentration for inhibition of melanin production was 1 ppm or less) | 3 × 10^−6%
Cc1cc(C)n(-c2nc(C)c(C)c(C)n2)n1 [Compound 5, 2-(3,5-dimethylpyrazol-1-yl)-4,5,6-trimethylpyrimidine] | ⊚ (the minimum concentration for inhibition of melanin production was 1 ppm or less) | 
